Test results as given in ChEMBL document CHEMBL1139242, “Peptide deformylase inhibitors of Mycobacterium tuberculosis: synthesis, structural investigations, and biological results” (Bioorg Med Chem Lett, 2008).
Converted amounts (≈) assume the structure as drawn.

Test system: Mycobacterium tuberculosis
Assay: Antimicrobial activity against Mycobacterium bovis BCG after 4 days by alamar blue assay
Type: functional
Details: variant bovis BCG, 96 h

Which MIC does the source give for `CCCC[C@H](CN(O)C=O)C(=O)N1CCC[C@H]1c1nc2ccccc2[nH]1` here?
The MIC was 0.6 µg/mL (≈ 1.67 µM).

With `O=CN(O)C[C@@H](CC1CC1)C(=O)N1CCC[C@H]1c1nc2ccccc2o1` as the molecule, how does the MIC read?
The MIC was 1.2 µg/mL (≈ 3.36 µM).

`CCCC[C@H](CC(=O)O)C(=O)N1CCC[C@H]1c1nc2ccccc2o1` was tested. Which MIC did it give?
The MIC was 9 µg/mL (≈ 26.1 µM).

For `CCCC[C@H](C(=O)NO)C(=O)N1CCC[C@H]1c1nc2ccccc2[nH]1`, which MIC is on record?
Its MIC is 4.5 µg/mL (≈ 13.1 µM).

`CCCCC[C@H](CN(O)C=O)C(=O)N1CCC[C@H]1c1nc2ccccc2o1` was tested. Which MIC did it give?
The MIC was 0.6 µg/mL (≈ 1.61 µM).

With `CCC[C@H](CN(O)C=O)C(=O)N1CCC[C@H]1c1nc2ccccc2o1` as the molecule, how does the MIC read?
The MIC was 4.5 µg/mL (≈ 13 µM).

With `O=CN(O)C[C@@H](Cc1ccccc1)C(=O)N1CCC[C@H]1c1nc2ccccc2[nH]1` as the molecule, how does the MIC read?
Its MIC is 9 µg/mL (≈ 22.9 µM).

Which MIC does the source give for `CCC[C@H](CN(O)C=O)C(=O)N1CCC[C@H]1c1nc2ccccc2[nH]1` here?
Its MIC is 9 µg/mL (≈ 26.1 µM).

For `CCCCC[C@H](CN(O)C=O)C(=O)N1CCC[C@H]1c1nc2ccccc2[nH]1`, which MIC is on record?
Its MIC is 1.2 µg/mL (≈ 3.22 µM).

With `CCCC[C@H](CC(=O)O)C(=O)N1CCC[C@H]1c1nc2ccccc2[nH]1` as the molecule, how does the MIC read?
Its MIC is 9 µg/mL (≈ 26.2 µM).

With `CCCC[C@H](CN(O)C=O)C(=O)N1CCC[C@H]1c1nc2ccccc2o1` as the molecule, how does the MIC read?
Its MIC is 0.6 µg/mL (≈ 1.67 µM).

`CCCC[C@H](C(=O)NO)C(=O)N1CCC[C@H]1c1nc2ccccc2o1` was tested. Which MIC did it give?
Its MIC is 4.5 µg/mL (≈ 13 µM).

For `O=CN(O)C[C@@H](Cc1ccccc1)C(=O)N1CCC[C@H]1c1nc2ccccc2o1`, which MIC is on record?
Its MIC is 9 µg/mL (≈ 22.9 µM).

`O=CN(O)C[C@@H](CC1CC1)C(=O)N1CCC[C@H]1c1nc2ccccc2[nH]1` was tested. Which MIC did it give?
Its MIC is 1.2 µg/mL (≈ 3.37 µM).
